Measurements as given in US20060128792A1, “Deguelin as a chemopreventive agent for lung cancer” (priority 2002, published 2006).
Where “and” joins values, the source holds several entries; their conditions need not be identical. Identical values can stand only once.

Columns and labels:
H358 = assay: MTT assay, growth inhibition by deguelin or deguelin derivatives; type: cell-based; settings: H358, 3 days
Sk-mes = assay: as above; type: cell-based; settings: 3 days
NHBE = assay: MTT assay, growth inhibition / viability of normal HBE cells; settings: for Avg. % con / MTT value, mean of replicates (unheaded line) / MTT value, replicate (unheaded line): NHBE, 3 days
Description: Cells and Cell Cultures. […] Normal HBE (NHBE) cells were purchased from Clontech (Palo Alto, Calif.). […] Cells were grown on tissue culture plasticware (Falcon; Bector, Dickinson, Bedford, Mass.) at 37° C. in a humidified atmosphere with 5% C02. For the analyses of growth inhibition, cell cycle, and induction of apoptosis by deguelin, NHBE cells, HBE cell lines, and squamous HBE cells were cultured in KSFM (Life Technologies) containing 2 μg/ml of EGF and bovine pitutary extract.
Cell Treatment with Deguelin and Determination of Growth Inhibition. To measure the effects of deguelin on cell proliferation, NHBE, 1799 cells, 1198 cells, and 1170 cells were transferred onto 96-well plates at densities ranging from 2×10^3 to 4×10^3 cells/well. After 1 day, the cells were changed to the fresh medium containing various concentrations of deguelin dissolved in DMSO (final concentration, 0.1%). Control cultures received 0.1% dimethyl sulfoxide (DMSO) as did the deguelin-treated cultures. […] After 1 day of infection, cells were treated with 10^−7 M or 10^−6 M of deguelin, or 0.1% DMSO as a control, and then incubated for 2 days. […] Six replicate wells were used for each analysis.

Chago = assay: MTT assay, growth inhibition by deguelin or deguelin derivatives; type: cell-based; settings: 3 days
H226B = assay: as above; type: cell-based; settings: 3 days
NHBE cells = assay: Apoptosis assay (TUNEL; DNA fragmentation); type: cell-based
Description: Apoptosis assay. Normal, premalignant, and malignant HBE cells were exposed to v various doses of deguelin for 3 days. […] Both adherent and floating cells were combined for the assessment of apoptosis using the APO-BRDU staining kit (Phoenix Flow Systems, San Diego, Calif.). Briefly, floating and attached cells dispersed with trypsin-EDTA were pelleted, washed, and fixed by 1% paraformaldehyde followed by 70% ethanol. The fixed cells were washed and incubated with DNA-labeling solution containing terminal deoxynucleotidyl transferase (TdT) reaction buffer, TdT enzyme, and bromodeoxyuridine triphosphate (Br-dUTP). Cells were rinsed, resuspended with fluorescein-PRB-I antibody solution, and analyzed by flow cytometry in the presence of PI/RNase solution. […] A dual display of DNA area (linear red fluorescence) and Br-dUTP incorporation (FITC-PRB-1) was used to determine the percentage of apoptotic cells.
The percentage of dead cells was determined by fluorescent-activated cell sorting (FACS) analysis of PI-stained nuclei. Apoptosis was also determined by the detection of nucleosomal DNA fragmentation, which was measured using the TACS apoptotic DNA Jaddering kit (Trevigen, Inc., Gaithersburg, Md.) according to the manufacturer's protocol. […] Apoptosis was analyzed using the APO-BRDU staining kit (Phoenix Flow Systems) as described above.

[1] = tested on: pAkt (Ser473) and pGSK-3β (Ser9) in 1799 cells; assay: Western blot of pAkt (Ser473) and pGSK-3β (Ser9); type: cell-based
Description: Immunoblotting. Whole cell lysates were prepared in lysis buffer (50 mM N-[2-[…]]-piperazine-N′-[2-ethanesulfonic acid] [HEPES; pH 7.5], 150 mM NaCl, 1.5 mM MgCl2, ImM EDTA, 0.2 mM EGTA, 1% NP40, 10% glycerol, 1 mM dithiothreitol (DTT), 1 mM phenylmethylsulfonyl fluoride, 20 mM sodium fluoride, 5 mM sodium orthovanadate, 10 μg/ml aprotinin, 10 μg/ml leupeptin, 2 μg/ml pepstatin, and 1 mM benzamidine) as described previously (Lee et al., 2002). Equivalent protein concentrations were resolved in sodium dodecyl sulfate-polyacrylamide gels and transferred to a nitrocellulose membrane. After the blocking of transblotted membrane in Tris-buffered saline (TBS) containing 0.05% Tween 20 (TBST) and 5% low fat milk, themembrane was incubated with primary antibody at the appropriate dilution in TBS-5% low-fat milk at 4° C. for 16 h and washed with TBST. The immunoblots were visualized using the ECL kit (Amersham, Inc., Arlington Heights, III) according to the manufacturer's directions. Rabbit polyclonal antibodies against human pAkt (Ser473), Akt, and pGSK-3β (Ser9), and mouse monoclonal antibody against human anti-pMAPK (Thr202/Tyr204) were purchased from Cell Signalinng Technology (Beverly, Mass.). […]

[2] = tested on: chorioallantoic membrane (CAM) vessel formation; assay: CAM assay, anti-angiogenic activity; type: in vivo, chick embryos
Description: The anti-angiogenic activity of deguelin was assessed using a CAM assay. Chick embryos were incubation for 3 days after which, about 2 ml of egg albumin was removed from the embryo with a hypodermic needle to allow the CAM and yolk sac to drop away from the shell membrane. On day 3.5, the shell was punched out and removed and the shell membrane was peeled away. […] After the two day incubation period, 500 μl of 10% fat emulsion was injected into the chorioallantoic membrane and observed microscopically.
Retinoic acid, an anti-angiogenic compound, was used as a positive control for determining anti-angiogenic response. […] This independent experiment was repeated three times with more than 20 eggs.

For `COc1cc2c(cc1OC)[C@@H]1C(=O)c3ccc4c(c3O[C@@H]1CO2)C=CC(C)(C)O4` [Deguelin], the Avg. % con (H358; deguelin 10^−6M) was 0.68 % con, the “MTT value, mean of replicates (unheaded line)” value (“MTT value, mean of replicates” for short) (H358; deguelin 10^−6M) was 0.111 and the “MTT value, replicate (unheaded line)” value (H358; deguelin 10^−6M) was 0.108 and 0.113 and 0.112. For the same compound, the Avg. % con (H358; deguelin 10^−8M) was 0.74 % con, the “MTT value, mean of replicates” value (H358; deguelin 10^−8M) was 0.122 and the “MTT value, replicate (unheaded line)” value (H358; deguelin 10^−8M) was 0.114 and 0.128 and 0.125. The Avg. % con (H358; deguelin 10^−10M) was 0.79 % con, the “MTT value, mean of replicates” value (H358; deguelin 10^−10M) was 0.129 and the “MTT value, replicate (unheaded line)” value (H358; deguelin 10^−10M) was 0.122 and 0.12 and 0.146. The Avg. % con (H358; deguelin 10^−12M) was 0.87 % con, the “MTT value, mean of replicates” value (H358; deguelin 10^−12M) was 0.143 and the “MTT value, replicate (unheaded line)” value (H358; deguelin 10^−12M) was 0.148 and 0.143 and 0.139. For the same compound, the Avg. % con (Sk-mes; deguelin 10^−6M) was 0.45 % con, the “MTT value, mean of replicates” value (Sk-mes; deguelin 10^−6M) was 0.121 and the “MTT value, replicate (unheaded line)” value (Sk-mes; deguelin 10^−6M) was 0.107 and 0.135 and 0.122. The Avg. % con (Sk-mes; deguelin 10^−8M) was 0.79 % con, the “MTT value, mean of replicates” value (Sk-mes; deguelin 10^−8M) was 0.211 and the “MTT value, replicate (unheaded line)” value (Sk-mes; deguelin 10^−8M) was 0.207 and 0.209 and 0.216. The Avg. % con (Sk-mes; deguelin 10^−10M) was 0.92 % con, the “MTT value, mean of replicates” value (Sk-mes; deguelin 10^−10M) was 0.247 and the “MTT value, replicate (unheaded line)” value (Sk-mes; deguelin 10^−10M) was 0.243 and 0.223 and 0.274. The Avg. % con (Sk-mes; deguelin 10^−12M) was 0.96 % con, the “MTT value, mean of replicates” value (Sk-mes; deguelin 10^−12M) was 0.258 and the “MTT value, replicate (unheaded line)” value (Sk-mes; deguelin 10^−12M) was 0.253 and 0.258 and 0.264. The “effect on NHBE viability” value (NHBE; MTT assay, 10^−9 M to 10^−7 M, up to 3 days) was “minimal effect”, the Avg. % con (NHBE; deguelin 10^−6M) was 0.23 % con and the “MTT value, mean of replicates” value (NHBE; deguelin 10^−6M) was 0.099. For the same compound, the “MTT value, replicate (unheaded line)” value (NHBE; deguelin 10^−6M) was 0.129 and 0.082 and 0.087, the Avg. % con (NHBE; deguelin 10^−8M) was 0.53 % con and the “MTT value, mean of replicates” value (NHBE; deguelin 10^−8M) was 0.229. For the same compound, the “MTT value, replicate (unheaded line)” value (NHBE; deguelin 10^−8M) was 0.249 and 0.227 and 0.21, the Avg. % con (NHBE; deguelin 10^−10M) was 0.81 % con and the “MTT value, mean of replicates” value (NHBE; deguelin 10^−10M) was 0.347. For the same compound, the “MTT value, replicate (unheaded line)” value (NHBE; deguelin 10^−10M) was 0.355 and 0.341 and 0.346, the Avg. % con (NHBE; deguelin 10^−12M) was 0.90 % con and the “MTT value, mean of replicates” value (NHBE; deguelin 10^−12M) was 0.386. The “MTT value, replicate (unheaded line)” value (NHBE; deguelin 10^−12M) was 0.417 and 0.365 and 0.377, the Avg. % con (Chago; deguelin 10^−6M) was 0.56 % con and the “MTT value, mean of replicates” value (Chago; deguelin 10^−6M) was 0.086. The “MTT value, replicate (unheaded line)” value (Chago; deguelin 10^−6M) was 0.094 and 0.086 and 0.078, the Avg. % con (Chago; deguelin 10^−8M) was 0.65 % con and the “MTT value, mean of replicates” value (Chago; deguelin 10^−8M) was 0.1. For the same compound, the “MTT value, replicate (unheaded line)” value (Chago; deguelin 10^−8M) was 0.101 and 0.093 and 0.106, the Avg. % con (Chago; deguelin 10^−10M) was 1.24 % con and the “MTT value, mean of replicates” value (Chago; deguelin 10^−10M) was 0.191. The “MTT value, replicate (unheaded line)” value (Chago; deguelin 10^−10M) was 0.192 and 0.184 and 0.197, the Avg. % con (Chago; deguelin 10^−12M) was 1.18 % con and the “MTT value, mean of replicates” value (Chago; deguelin 10^−12M) was 0.182. For the same compound, the “MTT value, replicate (unheaded line)” value (Chago; deguelin 10^−12M) was 0.175 and 0.179 and 0.192, the Avg. % con (H226B; deguelin 10^−6M) was 0.34 % con and the “MTT value, mean of replicates” value (H226B; deguelin 10^−6M) was 0.113. The “MTT value, replicate (unheaded line)” value (H226B; deguelin 10^−6M) was 0.117 (2×) and 0.106, the Avg. % con (H226B; deguelin 10^−8M) was 0.46 % con and the “MTT value, mean of replicates” value (H226B; deguelin 10^−8M) was 0.150. The “MTT value, replicate (unheaded line)” value (H226B; deguelin 10^−8M) was 0.153 and 0.147 and 0.149, the Avg. % con (H226B; deguelin 10^−10M) was 0.86 % con and the “MTT value, mean of replicates” value (H226B; deguelin 10^−10M) was 0.283. The “MTT value, replicate (unheaded line)” value (H226B; deguelin 10^−10M) was 0.295 and 0.282 and 0.272, the Avg. % con (H226B; deguelin 10^−12M) was 0.91 % con and the “MTT value, mean of replicates” value (H226B; deguelin 10^−12M) was 0.299. For the same compound, the “MTT value, replicate (unheaded line)” value (H226B; deguelin 10^−12M) was 0.274 and 0.32 and 0.304, the “TUNEL and DNA fragmentation in NHBE cells” value (NHBE cells) was “neither TUNEL-positive cell population nor DNA fragmentation” and the “pAkt level, time course” value ([1]; 10^−7 M deguelin) was “reduced after 7 h of treatment and was virtually undetectable after 14 h”. For the same compound, the “levels of pAkt (Ser473) and pGSK-3β (Ser9)” value ([1]; time-dependent, Akt, GSK-3α/β and β-Actin not affected) was “decreased”, the “anti-angiogenic activity (percentage of positive eggs)” value ([2]; 5 nmol/egg, 2 days) was 59.2% and the egg lethality ([2]; CAM assay, without any signs of thrombosis and hemorrhage) was “negligible”.
